This is an account of results in patent US20260317324A1, “BIFUNCTIONAL COMPOUNDS FOR DEGRADING BRAF VIA UBIQUITIN PROTEOSOME PATHWAY” (Nurix Therapeutics, Inc., priority 2023, published 2026).

The experiment has as its target T1, BRAF V600E (Homo sapiens, UniProt P15056, V600E).
T1 construct: endogenous C-terminal HiBiT fusion tag on BRAF V600E allele; endogenous in cells; host or cells: A375 clone 1F10 (CRISPR-Cas9 knock-in of the HiBiT tag; parental A375 from ATCC)
The experiment in a line: BRAF HiBiT degradation assay, C-terminal HiBiT-tagged BRAF V600E A375 cells (clone 1F10), Nano-Glo HiBiT Lytic assay. The experiment is classed as cell-based. The settings on record: for Dmax: A-375. From the text:
An A375 cell line expressing a homozygous V600E mutation was purchased from ATCC (Manassas, VA, USA). An A375 clone 1F10 cell line with an endogenous C-terminal HiBiT fusion tag on BRAF V600E allele was generated internally using CRISPR-Cas9 technology and cultured in DMEM, high glucose supplemented with 10% FBS and 1× GlutaMAX. A HCT-116 BRAF−/− cell line overexpressing the C-terminal HiBiT-tagged G466V, G469A, and D594G mutants were generated by lentiviral transduction, externally at Biosettia Inc (San Diego, CA, USA). The stably transfected cells were cultured in RPMI media supplemented with 10% FBS, 1× GlutaMAX, and 0.25 μg/ml puromycin. DMEM medium, RPMI 1640 medium, GlutaMAX, fetal bovine serum (FBS), and puromycin were purchased from Gibco (Grand Island, NY, USA). HCT-116 BRAF−/− cells were purchased from Horizon Discovery (Waterbeach, UK).
The C-terminal HiBiT tagged BRAF A375 cells (monoclonal cell line, cell clone 1F10) were seeded at a density of 10,000 cells/well in 30 μL media (DMEM, high glucose supplemented with 10% FBS and 1× GlutaMAX) in white opaque 384-well plates (Corning #3570) from column 1 to column 23. The wildtype A375 cells were seeded in column 24 at the same cell density in 30 μL media. Cells were incubated at 37° C. with 5% CO2 for 24 h.
Intermediate compound dilution series (5-point, ranging from 5 mM to 0.5 μM, 10-fold dilutions in DMSO) were prepared in a source plate (Beckman Coulter cat. no. 001-16128). Final compound dilution series (11-point, ranging from 1 μM to 0.01 nM, half-log dilutions in DMSO) were stamped into the assay plate (Corning #3570, column 1-11 and 12-22) using the Echo Acoustic Liquid Handler (Beckman Coulter). Each compound was plated in duplicate, and the total volume of compound DMSO solution was 60 nL/well (0.2% final DMSO concentration). DMSO was included in wells A23-L23 and A24-L24. The DMSO-treated HiBiT-tagged samples served as Negative Control (NC) and the DMSO-treated wildtype samples served as Background Control (BC) for the HiBiT assay.
HiBiT signal was measured by a Nano-Glo HiBiT Lytic assay (Promega cat. no. N3050). HiBiT lytic detection reagent (Nano-Glo HiBiT Lytic Buffer with 1:50 Nano-Glo HiBiT Lytic Substrate and 1:100 LgBiT Protein, 40 μL) was added using Bravo. The mixture was incubated at room temperature, in the dark, and with gentle shaking for 10 min. Luminesce units (LU) were read on an EnVision plate reader 2105 (Perkin Elmer).
Percent protein remaining and viability remaining per sample were calculated as follows: […]
% Protein remaining values were plotted as a function of compound concentration. XC50 (DC50) values were determined by fitting curves using the following equation:
For the HiBiT degradation assay, the key parameters reported include: • The dose of compound that produces 50% degradation (DC50 at 50%): • DC50 at 50%: the Fitted X value (Conc.) at Y=50 (response) • Observed Dmax (Obs. Dmax) is the percentage protein degraded at maximal compound effect relative to DMSO-treated control: […]
Background: HiBiT is a short tag that completes a luciferase, so light tracks the accessible tagged protein.

[1] abbreviates: A375 (BRAF V600E, Class 1), DC50 at 50% degradation.
[2] abbreviates: A375 (BRAF V600E, Class 1), observed Dmax, % protein degraded relative to DMSO control.
Setting [3] is: A375 (BRAF V600E), DC50 at 50%: fitted conc. at Y=50.
The mark [4] stands for this setting: A375 (BRAF V600E), percentage protein degraded at maximal compound effect relative to DMSO.

T1 sequence (P15056 whole entry V600E, the tested form may be a part): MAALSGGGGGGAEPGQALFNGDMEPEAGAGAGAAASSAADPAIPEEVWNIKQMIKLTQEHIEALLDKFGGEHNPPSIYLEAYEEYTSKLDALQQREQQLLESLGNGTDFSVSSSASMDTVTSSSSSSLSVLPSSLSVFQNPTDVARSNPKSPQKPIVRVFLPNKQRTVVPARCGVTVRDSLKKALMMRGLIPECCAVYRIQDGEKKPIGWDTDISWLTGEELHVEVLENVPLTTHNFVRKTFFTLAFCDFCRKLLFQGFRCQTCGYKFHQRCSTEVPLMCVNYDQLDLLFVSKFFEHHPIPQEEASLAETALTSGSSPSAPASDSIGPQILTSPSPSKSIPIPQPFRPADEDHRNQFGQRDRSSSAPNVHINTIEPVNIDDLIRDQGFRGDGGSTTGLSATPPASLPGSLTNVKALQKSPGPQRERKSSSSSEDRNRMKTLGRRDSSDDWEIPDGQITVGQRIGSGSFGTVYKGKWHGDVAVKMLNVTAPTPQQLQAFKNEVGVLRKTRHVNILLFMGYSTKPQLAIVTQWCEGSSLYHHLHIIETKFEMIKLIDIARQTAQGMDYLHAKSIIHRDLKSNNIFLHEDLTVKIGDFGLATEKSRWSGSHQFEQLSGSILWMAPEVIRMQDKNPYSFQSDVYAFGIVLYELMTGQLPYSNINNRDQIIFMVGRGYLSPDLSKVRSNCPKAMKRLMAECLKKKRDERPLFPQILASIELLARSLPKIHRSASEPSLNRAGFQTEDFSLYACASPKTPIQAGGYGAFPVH

Consider `CCCS(=O)(=O)Nc1cccc(-c2nc(C3CCN(Cc4ccc(C(=O)N[C@@H]5CCC(=O)NC5=O)cc4)CC3)sc2-c2ccnc(N)n2)c1F` [Compound 255, 4-({4-[5-(2-aminopyrimidin-4-yl)-4-[2-fluoro-3-(propane-1-sulfonamido)phenyl]-1,3-thiazol-2-yl]piperidin-1-yl}methyl)-N-[(3R)-2,6-dioxopiperidin-3-yl]benzamide], for which, under setting [1], the DC50 (as a rule, the midpoint of the concentration-degradation curve) is above 500 nM. The Dmax – broadly, the greatest extent of degradation seen – under setting [2] was below 30%.
The compound `CCCS(=O)(=O)Nc1cccc(-c2nc(C3CCN(CC4CCN(C(=O)CC5CCN(c6ccc(C7CCC(=O)NC7=O)cn6)CC5)CC4)CC3)sc2-c2ccnc(N)n2)c1F` (racemic) [Compound 202, Rac-N-{3-[5-(2-aminopyrimidin-4-yl)-2-[1-({1-[2-(1-{5-[(3R)-2,6-dioxopiperidin-3-yl]pyridin-2-yl}piperidin-4-yl)acetyl]piperidin-4-yl}methyl)piperidin-4-yl]-1,3-thiazol-4-yl]-2-fluorophenyl}propane-1-sulfonamide] had a 50% degradation concentration (DC50) under setting [3] below 10 nM. Under setting [4], the Dmax was above 70%.
For `CCCS(=O)(=O)Nc1cccc(-c2nc(C(C)(C)C)sc2-c2ccnc(Nc3cnn(CC4CCN(CC5CCN(c6ccc(C(=O)N[C@@H]7CCC(=O)NC7=O)nc6)CC5)CC4)c3)n2)c1F` [Compound 66, 5-(4-{[4-({4-[(4-{2-tert-butyl-4-[2-fluoro-3-(propane-1-sulfonamido)phenyl]-1,3-thiazol-5-yl}pyrimidin-2-yl)amino]-1H-pyrazol-1-yl}methyl)piperidin-1-yl]methyl}piperidin-1-yl)-N-[(3R)-2,6-dioxopiperidin-3-yl]pyridine-2-carboxamide], in that order: below 10 nM and above 70%.
With `CCCS(=O)(=O)Nc1cccc(-c2nc(C(C)(C)C)sc2-c2ccnc(Nc3cccc(OC4CCN(CC5CCN(c6ccc7c(=O)n(C8CCC(=O)NC8=O)ccc7c6)CC5)CC4)c3)n2)c1F` (racemic) [Compound 71, Rac-N-{3-[2-tert-butyl-5-(2-{[3-({1-[(1-{2-[(3R)-2,6-dioxopiperidin-3-yl]-1-oxo-1,2-dihydroisoquinolin-6-yl}piperidin-4-yl)methyl]piperidin-4-yl}oxy)phenyl]amino}pyrimidin-4-yl)-1,3-thiazol-4-yl]-2-fluorophenyl}propane-1-sulfonamide], under setting [3], the DC50 fell in the range of 10 to 50 nM. For the same compound, the Dmax under setting [4] lay in the range of 30 to 70%.
`CCCS(=O)(=O)Nc1cccc(-c2nc(C(C)(C)C)sc2-c2ccnc(NCC(C)(C)C3CCN(CC4CCN(c5ccc([C@H]6CCC(=O)NC6=O)cc5)CC4)CC3)n2)c1F` [Compound 144, N-[3-(2-tert-butyl-5-{2-[(2-{1-[(1-{4-[(3R)-2,6-dioxopiperidin-3-yl]phenyl}piperidin-4-yl)methyl]piperidin-4-yl}-2-methylpropyl)amino]pyrimidin-4-yl}-1,3-thiazol-4-yl)-2-fluorophenyl]propane-1-sulfonamide] registered a DC50 under setting [3] of 50 to 500 nM. This compound returned a Dmax under setting [4] of 30 to 70%.
On to `CCCS(=O)(=O)Nc1cccc(-c2nc(C3CCN(C(=O)[C@H]4CC[C@H](CN5CCc6cc(C7CCC(=O)NC7=O)ccc6C5)CC4)CC3)sc2-c2ccnc(N)n2)c1F` (mixture of isomers) [Compound 222, N-{3-[5-(2-aminopyrimidin-4-yl)-2-{1-[(1r,4r)-4-({6-[(3RS)-2,6-dioxopiperidin-3-yl]-1,2,3,4-tetrahydroisoquinolin-2-yl}methyl)cyclohexanecarbonyl]piperidin-4-yl}-1,3-thiazol-4-yl]-2-fluorophenyl}propane-1-sulfonamide], for which the 50% degradation concentration (DC50) under setting [3] was above 500 nM. The Dmax under setting [4] was in the range of 30 to 70%.
The matching figures for `CCCS(=O)(=O)Nc1cccc(-c2nc(C(C)(C)C)sc2-c2ccnc(Nc3ccc(C4CCN(C(=O)C5CCN(c6cccc7c6n(C)c(=O)n7C6CCC(=O)NC6=O)CC5)CC4)cc3)n2)c1F` (racemic) [Compound 161, Rac-N-(3-{2-tert-butyl-5-[2-({4-[1-(1-{1-[(3R)-2,6-dioxopiperidin-3-yl]-3-methyl-2-oxo-2,3-dihydro-1H-1,3-benzodiazol-4-yl}piperidine-4-carbonyl)piperidin-4-yl]phenyl}amino)pyrimidin-4-yl]-1,3-thiazol-4-yl}-2-fluorophenyl)propane-1-sulfonamide]: 10 to 50 nM and 30 to 70%.
For `CCCS(=O)(=O)Nc1cccc(-c2nc(C(C)(C)C)sc2-c2ccnc(NC3CC4(CCN(C[C@H]5CC[C@H](Oc6ccc(C7CCC(=O)NC7=O)cc6)CC5)CC4)C3)n2)c1F` (mixture of isomers) [Compound 130, N-[3-(2-tert-butyl-5-{2-[(7-{[(1r,4r)-4-{4-[(3RS)-2,6-dioxopiperidin-3-yl]phenoxy}cyclohexyl]methyl}-7-azaspiro[3.5]nonan-2-yl)amino]pyrimidin-4-yl}-1,3-thiazol-4-yl)-2-fluorophenyl]propane-1-sulfonamide], in that order: above 500 nM and 30 to 70%.
For `CCCS(=O)(=O)Nc1cccc(-c2nc(C(C)(C)C)sc2-c2ccnc(Nc3ccc(C4CCN(C(=O)C5CCN(CC6CCN(c7ccc(C8CCC(=O)NC8=O)cn7)CC6)CC5)CC4)cc3)n2)c1F` (racemic) [Compound 175, Rac-N-{3-[2-tert-butyl-5-(2-{[4-(1-{1-[(1-{5-[(3R)-2,6-dioxopiperidin-3-yl]pyridin-2-yl}piperidin-4-yl)methyl]piperidine-4-carbonyl}piperidin-4-yl)phenyl]amino}pyrimidin-4-yl)-1,3-thiazol-4-yl]-2-fluorophenyl}propane-1-sulfonamide], in that order: 10 to 50 nM and 30 to 70%.
`CCCS(=O)(=O)Nc1cccc(-c2nc(C3CCC4(CC3)CN(C(=O)C3CN(C5CCN(c6ccc7c(c6)C(=O)N(C6CCC(=O)NC6=O)C7=O)CC5)C3)C4)sc2-c2ccnc(N)n2)c1F` (racemic) [Compound 241, Rac-N-{3-[5-(2-aminopyrimidin-4-yl)-2-{2-[1-(1-{2-[(3R)-2,6-dioxopiperidin-3-yl]-1,3-dioxo-2,3-dihydro-1H-isoindol-5-yl}piperidin-4-yl)azetidine-3-carbonyl]-2-azaspiro[3.5]nonan-7-yl}-1,3-thiazol-4-yl]-2-fluorophenyl}propane-1-sulfonamide] yielded a DC50 under setting [3] below 10 nM. Besides, the Dmax under setting [4] is above 70%.
As for `CCCS(=O)(=O)Nc1cccc(-c2nc(C3(C)CCN(C(=O)CC4CCN(C5CCN(c6ccc7c(c6)C(=O)N(C6CCC(=O)NC6=O)C7=O)CC5)CC4)CC3)sc2-c2ccnc(N)n2)c1F` (racemic) [Compound 249, Rac-N-{3-[5-(2-aminopyrimidin-4-yl)-2-{1-[2-(1′-{2-[(3R)-2,6-dioxopiperidin-3-yl]-1,3-dioxo-2,3-dihydro-1H-isoindol-5-yl}-[1,4′-bipiperidin]-4-yl)acetyl]-4-methylpiperidin-4-yl}-1,3-thiazol-4-yl]-2-fluorophenyl}propane-1-sulfonamide], the 50% degradation concentration (DC50) under setting [1] lay in the range of 50 to 500 nM. Under setting [2], this compound displayed a Dmax of 30 to 70%.
On to `CCCS(=O)(=O)Nc1cccc(-c2nc(C)sc2-c2ccnc(Nc3ccc(C4CCN(CC5CCN(c6ccc(C7CCC(=O)NC7=O)cn6)CC5)CC4)cc3)n2)c1F` (racemic) [Compound 54, Rac-N-[3-(5-{2-[(4-{1-[(1-{5-[(3R)-2,6-dioxopiperidin-3-yl]pyridin-2-yl}piperidin-4-yl)methyl]piperidin-4-yl}phenyl)amino]pyrimidin-4-yl}-2-methyl-1,3-thiazol-4-yl)-2-fluorophenyl]propane-1-sulfonamide], for which the DC50 under setting [3] is below 10 nM. The Dmax under setting [4] is above 70%.
